The values below come from patent US20230074885A1, “BORTEZOMIB-LOADED NANOPARTICLES” (The Johns Hopkins University, priority 2020, published 2023).

For data set [1] the following is noted: cited from earlier work.
Data set [2] concerns primary patient-derived cancer organoid (PDO) cultures from patients with liver cancers. Briefly: FDA-approved cancer drugs tested across patient-derived cancer organoid (PDO) cultures. The format is cell-based, human. The procedure: Thirty-seven primary patient-derived cancer organoid (PDO) cultures have been established from patients with liver cancers (including hepatocellular cancer and cholangiocarcinoma). Food and Drug Administration (FDA)-approved cancer drugs (irrespective of FDA indication) were tested across all 37 PDO cultures.

A short description of data set [3]: Dose escalation test on animal survival. The format is in vivo, mice. The method, then: Dose escalation test on animal survival following local subcutaneous injection of the 1-month BTZ nanoparticle (BTZ NP) formulation in comparison with free BTZ injection via intratumor injection.
The recommended dose in patients is 1.3 mg/m^2. This dose is also the maximum tolerated dose in patients. […] One of the essential features of BTZ-NP is the ability to release active BTZ gradually. The ability of BTZ-NP to release BTZ slowly by subcutaneous injections was evaluated with increasing doses of BTZ-NP. As shown, a dose of 108 mg/m^2 could be injected without any death in rodents. This dose is approximately 80-fold higher than the dose of the free drug that is sufficient to kill rodents.

In data set [4] the test system is patient derived xenograft (PDX) model established from a human primary HCC. The data set can be described thus: In vivo treatment of patient derived xenograft (PDX) mouse model of liver cancer. More on the design: species or system NSG mice. The method, then: In vivo therapeutic effect of BTZ-loaded nanoparticles. The therapeutic effect of BTZ-loaded nanoparticles was assessed using patient derived xenograft (PDX) model. Briefly, fresh human tumor tissue was harvested from HCC patients, then cut in small pieces (3^3 mm^3) and implanted subcutaneously in the right flank of NSG mice. Once tumors grew, a similar process (harvesting tumors from mice, mincing and inserting in new mice) was implemented. Mice at the 5th passage of PDX were utilized in this experiment. After implantation subcutaneously, the tumor is allowed to grow to approximately 1,000 mm^3. Next, mice were randomized to blank nanoparticles and BTZ-loaded nanoparticles with an equivalence of 2.2 mg/kg BTZ. The tumor sizes of mice in different groups were measured through two weeks and were taken as the reflection of therapeutic effect of different formulations.

For `CC(C)C[C@H](NC(=O)[C@H](Cc1ccccc1)NC(=O)c1cnccn1)B(O)O` [free BTZ, bortezomib], the “recommended dose / maximum tolerated dose in patients” value in data set [1] is recorded as 1.3 mg/m^2. Moreover, in data set [2] (37 PDO cultures, hepatocellular cancer and cholangiocarcinoma), the “effectiveness across PDO lines” value is listed as “highly effective across all tested PDO lines”. Moreover, in data set [2] (across all 37 PDO lines), the “effectiveness compared with currently approved FDA drugs for unresectable liver cancers” value is on record as “more effective than any of the currently approved FDA drugs”. In addition, the cause of death result in data set [3] (1 mg/kg free BTZ, intra-tumor injection) is given as “liver failure”. The Survival in data set [3] (1 mg/kg free BTZ, single intra-tumor injection, 12.5 μg/dose, 1.5 mg/m^2) is listed as 0/5. For the same compound, the “lethal dose in rodent model” value in data set [3] (intratumoral injection) was 1.5 mg/m^2. Besides, the “animal death due to toxicity” value in data set [4] (high dose 0.8 mg/kg free BTZ) was “died 1 day after injection”. Besides, the “efficacy in PDX model of liver cancer” value in data set [4] (mouse, in vivo) is on record as “effective”.
